Experiments:
ES cell EB5 [1] = assay: Nerve cell inducing ratio: colonies with neurite / total colonies, differentiation induction of EB5; type: cell-based; settings: for activity to induce differentiation of embryonic stem cells into nerve cells by the combination of heparin and vitamin B12: substance added to 0.01% heparin and 100 nmol/l vitamin B12, conclusion of Example 2; for induction of nerve cells (nerve cell inducing ratio): FIG. 2
Experimental: In the following Examples, an ES cell EB5 [Nature Genet., 24, 372, (2000)] was used as the embryonic stem cell. The EB5 was inoculated into a dish coated with 0.1% of gelatin and sub-cultured at 37° C. in a CO2 incubator ventilated with 5% of carbon dioxide while keeping its undifferentiated state, using G-MEM (Invitrogen) containing 1% fetal bovine serum (manufactured by JRH Biosciences), 10% Knockout Serum Replacement (manufactured by Invitrogen), 1 mmol/l pyruvic acid (manufactured by Sigma), 0.1 mmol/l nonessential amino acids (manufactured by Invitrogen), 0.1 mmol/12-mercaptoethanol (manufactured by Nacalai Tesque), […] blasticidin (manufactured by Invitrogen) and 2×10^3 U/ml ESGRO (manufactured by Chemicon) (to be referred to as “maintenance medium” hereinafter). When differentiation of EB5 is induced, 2.5×10^3 cells of EB5 were inoculated into a 24 well plate coated with 0.1% of gelatin, a medium prepared by eliminating serum, blasticidin and ESGRO from the maintenance medium (hereinafter referred to as “differentiation induction medium”) was added at 1 ml to respective wells, and the cells were allowed to adhere thereto by incubating at 37° C. for 2 hours. Thereafter, 500 μl of PBS containing various concentration of heparin (manufactured by Sigma) or vitamin B12 (cyanocobalamin, manufactured by Nacalai Tesque) (hereinafter referred to as “test solution 1”) was added thereto and incubated at 37° C. for 14 days without changing the medium. Each test condition was carried out in tandem. In this connection, the concentrations of heparin and vitamin B12 mean their concentrations in the test solution 1. On the 14th day after addition of the test solution 1, colonies having a diameter of 50 μm or more were counted using an optical microscope to calculate the number of total colonies. Also, among the colonies, a colony on which neurite was observed was regarded as a nerve cell colony, and the nerve cell inducing ratio was calculated by the following formula. Nerve cell inducing ratio(%)=the number of nerve cell colonies/the number of total colonies×100 Nerve cell inducing differentiation ratio was examined in the same manner as in Example 1, except that PBS containing 0.01% of heparin and 100 nmol/l of vitamin B12 (hereinafter referred to as “test solution 2”), a test solution 3 containing 0.1 μg/ml of biotin [(+)-biotin, manufactured by Wako Pure Chemical Industries] in the test solution 2, a test solution 4 containing 0.42 μg/ml of K4[Fe(CN)6] (manufactured by Nacalai Tesque) in the test solution 2, a test solution 5 containing 0.081 μg/ml of putrescine (manufactured by Sigma) in the test solution 2, a test solution 6 containing 0.1 μg/ml of biotin, 0.42 μg/ml of K4[Fe(CN)6] and 0.081 μg/ml of putrescine in the test solution 2 and a test solution 7 containing 0.01% of heparin, 0.1 […] of biotin, 0.42 μg/ml of K[Fe(CN)6] and 0.081 μg/ml of putrescine were used instead of the test solution 1 in the above-described Example 1.

ES cell EB5 [2] = assay: Number of total colonies formed from EB5 after 14 days of differentiation induction culture; type: cell-based; settings: vitamin B12 added; heparin 0% vs 0.01% addition condition; 14 days after commencement of culturing; FIG. 1
Experimental: In the following Examples, an ES cell EB5 [Nature Genet., 24, 372, (2000)] was used as the embryonic stem cell.
The EB5 was inoculated into a dish coated with 0.1% of gelatin and sub-cultured at 37° C. in a CO2 incubator ventilated with 5% of carbon dioxide while keeping its undifferentiated state, using G-MEM (Invitrogen) containing 1% fetal bovine serum (manufactured by JRH Biosciences), 10% Knockout Serum Replacement (manufactured by Invitrogen), 1 mmol/l pyruvic acid (manufactured by Sigma), 0.1 mmol/l nonessential amino acids (manufactured by Invitrogen), 0.1 mmol/12-mercaptoethanol (manufactured by Nacalai Tesque), […] blasticidin (manufactured by Invitrogen) and 2×10^3 U/ml ESGRO (manufactured by Chemicon) (to be referred to as “maintenance medium” hereinafter). […]
On the 14th day after addition of the test solution 1, colonies having a diameter of 50 μm or more were counted using an optical microscope to calculate the number of total colonies. Also, among the colonies, a colony on which neurite was observed was regarded as a nerve cell colony, and the nerve cell inducing ratio was calculated by the following formula.

## O=C(O)CCCC[C@@H]1SC[C@@H]2NC(=O)N[C@@H]21 [biotin, (+)-biotin]
ES cell EB5 [1]
  activity to induce differentiation of embryonic stem cells into nerve cells by the combination of heparin and vitamin B12: reinforced

## NCCCCN [putrescine]
ES cell EB5 [1]
  activity to induce differentiation of embryonic stem cells into nerve cells by the combination of heparin and vitamin B12: reinforced

## cyanocobalamin [vitamin B12]
ES cell EB5 [1]; heparin 0% addition condition, vitamin B12 added, 14 days
  induction of nerve cells (nerve cell inducing ratio): hardly induced
ES cell EB5 [1]; heparin 0.01% addition condition, vitamin B12 concentration varied, 14 days
  induction of nerve cells (nerve cell inducing ratio): nerve cells are induced

## heparin
ES cell EB5 [2]
  number of total colonies: difference in the number of total colonies was not found
ES cell EB5 [1]; vitamin B12 not added, heparin concentration varied, 14 days, FIG. 3
  induction of nerve cells (number of nerve cell colonies): hardly induced

From patent publication US20080305544A1, “Method of Producing Nerve Cell” (KYOWA HAKKO KOGYO CO., LTD. TOKYO, JAPAN, priority 2004, published 2008)
